The values below come from patent US5340920A, “Physiologically active porcine peptide (CNP-53)” (Matsuo; Hisayuki, priority 1990, dated 1994).

One experiment concerns rats. Conditions: administered to rats; Japanese Patent Application No. 105047/1990; cited from earlier work.
A further experiment has as its system chick rectum. Put plainly: Chick rectum relaxant activity (method of Currie et al.). Conditions: assay system of Currie et al.; compared with CNP-22. Here is the method:
The chick rectum relaxant activity of CNP-53 was measured in accordance with the method of Currie et al. (Currie et al., […]).

Experiment [1] relates to anti-CNP-22 antiserum (antibody #171-4). The experiment is described as follows: RIA system using anti-CNP-22 antiserum #171-4 and I125 labelled [Tyr0] CNP-22. It is filed as binding, rabbit. Conditions: for cross-reactivity of antibody #171-4: RIA, CNP-22 as standard. As to the method:
Six milligrams of chemically synthesized CNP-22 and 15 mg of bovine thyroglobulin (product of Sigma Co.) were dissolved in 2 ml of 0.1M phosphate buffer (pH 7.4). To the solution, 100 μl of 5% glutaraldehyde was added and the mixture was agitated at 0° C. for 20 min to have CNP-22 bound to the thyroglobulin. Then, the solution was dialyzed five times against water (500 ml) and twice against 500 ml of 50 mM phosphate buffer (pH 7.4) containing 80 mM NaCl, whereby excess salts and reagents were removed from the reaction solution. Subsequently, 50 mM phosphate buffer containing 80 mM NaCl was added to the reaction solution to make a total volume of 12 ml. Thereafter, an equal volume of Freund's complete adjuvant was added to form an emulsion. A rabbit (New Zealand White) was repeatedly immunized with the emulsion at 20-day intervals so as to prepare an anti-CNP-22 antiserum. The thus prepared antiserum was named "#171-4".
In the first step, [Tyr°] CNP-22 [a peptide having a tyrosine residue (Tyr) added to the N-terminus of CNP-22] was chemically synthesized. Then, I^125 was introduced into the N-terminal Tyr residue by the method of Miyata et al. (Miyata, A. et al., Biochem. Biophys. Res. Commun., 129, 248-255, 1985) and the I^125 labelled monoiodo(Tyr°] CNP-22 was separated and isolated by reverse-phase HPLC.
In the next step, an RIA system was constructed by the following method using the thus I125 labelled [Tyr°] CNP-22 and the antibody (#171-4) prepared in Example 1-A.
As a buffer for the RIA system, 50 mM phosphate buffer (pH 7.4) containing 80 mM NaCl, 0.1% Triton X-100, 25 mM EDTA, 0.05% NaN3, 3.1% dextran T-40 and 0.25% BSA (as treated with N-ethylmaleimide) was used. A standard CNP-22 solution or assay sample (100 μl) and the antibody #171-4 prepared in Example 1-A (100 μl of a 60,000-fold dilution) were added to the buffer and the mixture was subjected to reaction at 4° C. for 24 h. […] Thereafter, polyethylene glycol was added and the radioactivity of the resulting precipitate was measured with a gamma-counter (ARC-600 of Aloka Co.).

Experiment [2] can be described thus: Diuretic and natriuretic actions of the purified peptide. It is filed as in vivo. The following applies: no method described.

Turning to “CNP-22: C-type natriuretic peptide of 22 amino acid residues from porcine brain, single S-S bond, no C-terminal tail (GLSKGCFGLKLDRIGSMSGLGC)”, the “natriuretic and hypotensive actions” value in the experiment with rats was “natriuretic and hypotensive actions”.

For “CNP-53: novel porcine brain peptide of 53 amino acid residues containing CNP-22 at the C-terminus, intramolecular S-S bond Cys37-Cys53 (DLRVDTKSRAAWARLLHEHPNARKYKGGNKKGLSKGCFGLKLDRIGSMSGLGC)”, in the experiment on chick rectum, the “chick rectum relaxant activity” value was “comparable chick rectum relaxant activity to CNP-22”. Moreover, in experiment [1] (RIA of Example 1, assuming 53 residues containing CNP-22 at the C-terminus, compared with CNP-22), the “immunoreactivity per molecule with the anti-CNP-22 antiserum” value is “comparable to that of CNP-22”. In addition, the “diuretic and natriuretic actions” value in experiment [2] is “diuretic and natriuretic actions”.

As to “α-ANP: α-type atrial natriuretic peptide, single-stranded peptide of 28 amino acids with a single S-S bond [reference compound]”, the “cross-reactivity of antibody #171-4” value in experiment [1] stood at 0.015%.

B1: pBNP-26: porcine brain natriuretic peptide of 26 amino acid residues having a single S-S bond (peptide)
peptide: HPLGGAGLASELPGIQELLDRLRDRVSELQAERTDLEPLRQDRGLTEAWEAREAAPTGVLGPRSSIFQVLRGIRSPKTMRDSGCFGRRLDRIGSLSGLGCNVLRRY
As for B1, in experiment [1], the “cross-reactivity of antibody #171-4” value came to 0.46%.
